The target of experiment [1] is T1, system Xc^− (Homo sapiens, UniProt Q9UPY5).
T1 sequence (Q9UPY5 1-501): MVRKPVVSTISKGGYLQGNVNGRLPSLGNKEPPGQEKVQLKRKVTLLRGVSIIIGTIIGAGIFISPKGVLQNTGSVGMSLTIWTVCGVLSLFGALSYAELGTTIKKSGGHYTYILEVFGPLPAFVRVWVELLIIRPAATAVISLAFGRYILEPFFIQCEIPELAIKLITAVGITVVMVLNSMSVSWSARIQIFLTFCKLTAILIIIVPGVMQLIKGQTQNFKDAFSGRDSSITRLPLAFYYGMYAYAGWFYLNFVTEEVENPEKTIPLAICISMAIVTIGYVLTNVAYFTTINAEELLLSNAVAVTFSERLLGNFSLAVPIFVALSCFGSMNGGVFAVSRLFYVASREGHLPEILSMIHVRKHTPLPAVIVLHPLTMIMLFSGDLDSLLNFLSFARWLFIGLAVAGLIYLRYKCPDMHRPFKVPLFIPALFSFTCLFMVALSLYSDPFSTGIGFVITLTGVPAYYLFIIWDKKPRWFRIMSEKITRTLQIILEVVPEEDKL
T1 sequence (P08195 1-529 partner): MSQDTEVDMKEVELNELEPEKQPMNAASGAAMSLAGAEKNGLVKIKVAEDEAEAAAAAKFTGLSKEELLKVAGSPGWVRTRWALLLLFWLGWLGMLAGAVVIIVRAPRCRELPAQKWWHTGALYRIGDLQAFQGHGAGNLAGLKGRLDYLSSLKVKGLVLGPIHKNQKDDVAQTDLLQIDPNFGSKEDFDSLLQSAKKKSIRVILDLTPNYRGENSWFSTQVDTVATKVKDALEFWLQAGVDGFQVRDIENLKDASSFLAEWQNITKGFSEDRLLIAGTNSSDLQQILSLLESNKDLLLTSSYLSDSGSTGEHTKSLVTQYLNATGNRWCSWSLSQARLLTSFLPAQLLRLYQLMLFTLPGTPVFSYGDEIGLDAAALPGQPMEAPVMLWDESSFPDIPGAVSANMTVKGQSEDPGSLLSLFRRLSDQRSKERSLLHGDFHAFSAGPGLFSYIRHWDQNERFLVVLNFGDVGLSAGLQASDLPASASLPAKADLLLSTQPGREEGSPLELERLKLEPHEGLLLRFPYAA
Kind of experiment: Cystine-induced glutamate release assay. Type of experiment: cell-based. Further details: endogenous in cells; host or cells: H4 cells. The conditions noted are these: H4 cells, sodium-free HEPES buffer, 50 μM L-Cystine, 2 hours, Amplex Red glutamate readout; read-out: pIC50 Cystine-induced glutamate release assay (converted). An excerpt:
(§1) The effect of compounds of Formula (I) on the system Xc^− functionality was examined in two independent cell assays: (i) measurement of cystine-induced glutamate release; and (ii) measurement of [^14C]L-Cystine uptake.
(§2) As described above, System Xc^−, also known as the cystine/glutamate antiporter, is an amino acid transporter that mediates the extrusion of intracellular L-glutamate outside the cell and the uptake of extracellular L-cystine into the cell.
(§3) By measuring respectively, the concentration of glutamate released outside the cell and the L-cystine uptaken in the cell, with increasing concentrations of compounds of formula (I) according to the present invention, the efficacy of said compounds to inhibit the System Xc^− function can be evaluated.
(§4) The efficacy of the compounds to inhibit system Xc^− is represented by measuring the IC50 which corresponds to the concentration of compound necessary to inhibit 50% of the signals from the two control groups; DMSO 1% and Erastin 50 μM in the respective assays. pIC50 values correspond to −log of the IC50 in Molar.
Measurement of cystine-induced glutamate release indicates levels of glutamate (outside of the cell) that are dependent on system Xc^− antiporter function. Upon the addition of L-Cystine to H4 cells, intracellular glutamate is counter-transported and exported in the supernatant.
In this assay, the medium is devoid of sodium to prevent the transport of glutamate by sodium-dependent excitatory amino acid transporters (EAATs). H4 cells were plated on 384-well culture plate at 1×10^4 cells/well in Dulbecco's Modified Eagle Medium (DMEM) with L-glutamine, penicillin/streptomycin and 10% fetal bovine serum (all from ThermoFisher Scientific) and incubated in a humidified CO2 incubator at 37° C. After 2 days, cells were washed 4 times with prewarmed sodium-free HEPES buffer (contents in mM: HEPES 10, KCl 5.4, CaCl2 2.5, MgCl2 1, KH2PO4 0.4, D-Glucose 5, Choline chloride 140), pH 7.4. Glutamate release was induced by addition of 50 μM of L-Cystine (Sigma-Aldrich), together with a test compound of Formula (I) at 1% final DMSO concentration. After 2 hours of incubation in the culture incubator, supernatants were transferred to a low-binding polypropylene 384-well plate to determine L-glutamate concentration using Amplex™ Red Glutamic Acid Assay Kit (ThermoFisher Scientific). Briefly, 10 μL of Amplex™ Red working solution was added to 10 μL of the supernatant, then the mixture was incubated for 30 min at 37° C. Fluorescence intensity was measured by EnVision microplate reader (PerkinElmer).

Experiment [2] has as its target T1, system Xc^−. Put plainly: [^14C]L-Cystine uptake assay. Further details: endogenous in cells; host or cells: H4 cells. Type of experiment: cell-based. Conditions: H4 cells, sodium-free HEPES buffer, 0.5 μM L-[14C]Cystine and 4.5 μM L-Cystine, 1 hour at 37° C.; read-out: pIC50 [^14C] L-Cystine uptake assay (converted).
Description: as §1, §2, §3, §4
In this assay, the medium is devoid of sodium to prevent the transport of glutamate by sodium-dependent excitatory amino acid transporters (EAATs). H4 cells were plated on a 96-well CytoStar-T scintillating microplate (PerkinElmer) at 5×10^4 cells/well in the medium described above. After 1 day, cells were washed one time with the sodium-free HEPES buffer and preincubated with test compounds of Formula (I) (1% final DMSO) for 15 min. Uptake was initiated by adding 0.5 μM L-[1,2, 1′,2′-^14C]Cystine (0.02 mCi/mL, PerkinElmer, Waltham, US) and 4.5 μM L-Cystine (Sigma-Aldrich). After 1 hour at 37° C., plates were counted in a MicroBeta^2 microplate counter (PerkinElmer).

For `Cc1cc2c(c(Cl)n1)-c1cccnc1C(C)C(=O)N2CC(=O)Nc1ccc(C(F)F)cc1` (single isomer, unassigned) [#116, 2-[3-chloro-5,10-dimethyl-9-oxo-4,8,12-triazatricyclo[9.4.0.0^2,7]pentadeca-1(11),2(7),3,5,12,14-hexaen-8-yl]-N-[4-(difluoromethyl)phenyl]acetamide], the IC50 on system Xc^− [1] and at system Xc^− [2] was < 15.8 nM throughout.

As for `Cc1cc2c(c(Cl)n1)-c1cccnc1C(C)C(=O)N2CC(=O)Nc1ccc(Cl)c(F)c1` (single isomer, unassigned) [#117, 2-[3-chloro-5,10-dimethyl-9-oxo-4,8,12-triazatricyclo[9.4.0.0^2,7]pentadeca-1(15),2(7),3,5,11,13-hexaen-8-yl]-N-(4-chloro-3-fluorophenyl)acetamide], the IC50 on system Xc^− [1] and at system Xc^− [2] was < 15.8 nM each time. For `Cc1cc2c(n(C)c1=O)-c1ccccc1C(C)C(=O)N2CC(=O)Nc1ccc(C(F)(F)F)cc1` (single isomer, unassigned) [#121, N-[4-(trifluoromethyl)phenyl]-2-[1,3,7-trimethyl-2,6-dioxo-7H-pyrido[3,2-d][3]benzazepin-5-yl]acetamide], the IC50 on system Xc^− [1] and at system Xc^− [2] was < 15.8 nM in each case. On to `Cc1cc2c(c(F)n1)-c1cccnc1[C@@H](C)C(=O)N2CC(=O)Nc1ccc(C2CC2(F)F)cc1` (single isomer, unassigned) [#146], for which the figures for the IC50 on system Xc^− [1] and on system Xc^− [2] were 39.8 to 100 nM and 100 to 501 nM, respectively. The matching figures for `Cc1cc2c(c(C#N)n1)-c1cccnc1C(C)C(=O)N2CC(=O)Nc1ccc(Cl)c(F)c1` (single isomer, unassigned) [#155, N-(4-chloro-3-fluoro-phenyl)-2-[3-cyano-5,10-dimethyl-9-oxo-4,8,12-triazatricyclo[9.4.0.0^2,7]pentadeca-1(11),2(7),3,5,12,14-hexaen-8-yl]acetamide]: < 15.8 nM and < 15.8 nM. For `Cc1cc2c(c(O)n1)-c1cccnc1C(C)C(=O)N2CC(=O)Nc1ccc(C(F)(F)F)cc1` (single isomer, unassigned) [#161, 2-(3-hydroxy-5,10-dimethyl-9-oxo-4,8,12-triazatricyclo[9.4.0.0^2,7]pentadeca-1(11),2(7),3,5,12,14-hexaen-8-yl)-N-[4-(trifluoromethyl)phenyl]acetamide], the IC50 at system Xc^− [1] and at system Xc^− [2] was 15.8 to 39.8 nM each time.

`COCCOc1nc(C)cc2c1-c1cccnc1C(C)C(=O)N2CC(=O)Nc1ccc(C(F)(F)F)cc1` (single isomer, unassigned) [#162, 2-[3-(2-methoxyethoxy)-5,10-dimethyl-9-oxo-4,8,12-triazatricyclo[9.4.0.0^2,7]pentadeca-1(11),2(7),3,5,12,14-hexaen-8-yl]-N-[4-(trifluoromethyl)phenyl]acetamide]: the IC50 at system Xc^− [1] and at system Xc^− [2] was 15.8 to 39.8 nM each time. `Cc1cc2c(c(=O)n1C)-c1ccc(F)cc1C(C)C(=O)N2CC(=O)Nc1ccc(Cl)c(F)c1` (single isomer, unassigned) [#174, N-(4-chloro-3-fluoro-phenyl)-2-(9-fluoro-2,3,7-trimethyl-1,6-dioxo-7H-pyrido[4,3-d][3]benzazepin-5-yl)acetamide]: the IC50 at system Xc^− [1] and on system Xc^− [2] was < 15.8 nM in each case.

For the molecule `O=C(CN1C(=O)C(O)c2ncc(F)cc2-c2c(F)cc(F)cc21)Nc1ccc(C(F)F)cc1` (single isomer, unassigned) [#318, N-[4-(difluoromethyl)phenyl]-2-[2,9,11-trifluoro-5-hydroxy-6-oxo-5H-pyrido[2,3-d][1]benzazepin-7-yl]acetamide], the IC50 on system Xc^− [1] was < 15.8 nM. Same read-out and setting: the result for `Cc1cc2c(c(C)n1)-c1ccc(C)nc1CC(=O)N2CC(=O)Nc1ccc(C(F)(F)F)cc1` [#70, N-[4-(trifluoromethyl)phenyl]-2-(3,5,13-trimethyl-9-oxo-4,8,12-triazatricyclo[9.4.0.0^2,7]pentadeca-1(11),2(7),3,5,12,14-hexaen-8-yl)acetamide] reads 39.8 to 100 nM; that for `Cc1cc2c(c(F)n1)-c1cccnc1[C@@H](C)C(=O)N2CC(=O)Nc1cc(F)c(Cl)cc1F` [#245, N-(4-chloro-2,5-difluoro-phenyl)-2-[(10R)-3-fluoro-5,10-dimethyl-9-oxo-4,8,12-triazatricyclo[9.4.0.0^2,7]pentadeca-1(15),2,4,6,11,13-hexaen-8-yl]acetamide], 15.8 to 39.8 nM; that for `CC1C(=O)N(CC(=O)Nc2ccc(C(F)F)cc2)c2cc(N3CC(F)(F)C3)nc(Cl)c2-c2cccnc21` (stereo not drawn) [#292, 2-[3-chloro-5-(3,3-difluoroazetidin-1-yl)-10-methyl-9-oxo-4,8,12-triazatricyclo[9.4.0.0^2,7]pentadeca-1(15),2,4,6,11,13-hexaen-8-yl]-N-[4-(difluoromethyl)phenyl]acetamide], < 15.8 nM. Take `COc1ccc2c(c1)N(CC(=O)Nc1ccc(C(F)F)cc1)C(=O)C(C)c1ncccc1-2` (stereo not drawn) [#305, N-[4-(difluoromethyl)phenyl]-2-(9-methoxy-5-methyl-6-oxo-5H-pyrido[2,3-d][1]benzazepin-7-yl)acetamide]: the IC50 at system Xc^− [1] is 39.8 to 100 nM.

For the molecule `CC1C(=O)N(CC(=O)Nc2ccc(C(F)F)cc2)c2cc(C(F)F)nc(Cl)c2-c2cccnc21` (stereo not drawn) [#338, 2-[3-chloro-5-(difluoromethyl)-10-methyl-9-oxo-4,8,12-triazatricyclo[9.4.0.0^2,7]pentadeca-1(11),2(7),3,5,12,14-hexaen-8-yl]-N-[4-(difluoromethyl)phenyl]acetamide], the IC50 at system Xc^− [1] was < 15.8 nM.

With `O=C(CN1C(=O)Cc2cc(Cl)ccc2-c2c1cc(C1CC1)nc2Cl)Nc1ccc(C(F)F)cc1` [#340, 2-(1,9-dichloro-3-cyclopropyl-6-oxo-7H-pyrido[4,3-d][3]benzazepin-5-yl)-N-[4-(difluoromethyl)phenyl]acetamide], the IC50 on system Xc^− [1] is 39.8 to 100 nM. Still for that read-out and setting: the result for `CC1C(=O)N(CC(=O)Nc2ccc(Cl)c(F)c2)c2cc(C3(F)CN(C)C3)nc(Cl)c2-c2cccnc21` (stereo not drawn) [#422, 2-[3-chloro-5-(3-fluoro-1-methyl-azetidin-3-yl)-10-methyl-9-oxo-4,8,12-triazatricyclo[9.4.0.0^2,7]pentadeca-1(11),2,4,6,12,14-hexaen-8-yl]-N-(4-chloro-3-fluoro-phenyl)acetamide] reads 15.8 to 39.8 nM.

(Values after US20260217708A1, “FUSED BENZAZEPINE DERIVATIVES FOR USE IN THE TREATMENT OF CANCER AND EPILEPSY” (UCB BIOPHARMA SRL, priority 2023, published 2026).)
